# Source: ChEMBL document CHEMBL1149774, “Synthesis of N-(5,7-diamino-3-phenyl-quinoxalin-2-yl)-3,4,5-substituted anilines and N-[4[(5,7-diamino-3-phenylquinoxalin-2-yl)amino]benzoyl]-l-glutamic acid diethyl ester: evaluation of in vitro anti-cancer and anti-folate activities” (Eur J Med Chem, 2008)
# The source made the active and inactive calls. The rule behind the calls is not given here.
# How the values were obtained:
# [1] = molecular target: Thymidylate synthase (Escherichia coli, UniProt C3SWJ7)
# [2] = molecular target: T1, Thymidylate synthase (Homo sapiens, UniProt P04818)
# Target sequence in this assay (P04818 whole entry): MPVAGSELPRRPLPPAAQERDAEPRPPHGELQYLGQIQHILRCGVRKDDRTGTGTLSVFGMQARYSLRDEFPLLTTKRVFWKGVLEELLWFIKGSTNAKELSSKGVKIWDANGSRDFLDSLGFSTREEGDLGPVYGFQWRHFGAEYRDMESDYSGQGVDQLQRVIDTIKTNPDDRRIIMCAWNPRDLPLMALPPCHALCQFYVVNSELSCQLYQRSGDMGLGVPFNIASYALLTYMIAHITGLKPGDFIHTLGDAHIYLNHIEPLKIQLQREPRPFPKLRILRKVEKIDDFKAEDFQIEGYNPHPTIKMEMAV
# [3] = molecular target: T1, Thymidylate synthase; test: Inhibition of human thymidylate synthase at 10 uM
# Target sequence in this assay (P04818 2-313 limits assumed): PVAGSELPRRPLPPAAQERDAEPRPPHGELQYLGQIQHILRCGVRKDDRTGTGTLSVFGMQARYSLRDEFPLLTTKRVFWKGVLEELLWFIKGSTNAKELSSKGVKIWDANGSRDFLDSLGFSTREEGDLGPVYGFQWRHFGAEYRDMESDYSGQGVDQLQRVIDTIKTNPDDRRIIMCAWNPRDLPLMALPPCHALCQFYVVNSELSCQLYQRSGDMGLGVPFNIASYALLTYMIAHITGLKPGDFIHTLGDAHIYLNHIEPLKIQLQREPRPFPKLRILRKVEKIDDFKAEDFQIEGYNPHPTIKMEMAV
# [4] = tested on: HT-29; test: Growth inhibition of human HT29 cells after 48 hrs by SRB staining method; format: functional; settings: HT-29, 48 h; for TGI: read-out: pTGI (converted)
# [5] = molecular target: Thymidylate synthase (Escherichia coli) (UniProt C3SWJ7); test: Inhibition of Escherichia coli thymidylate synthase at 10 uM
# Sequence of Thymidylate synthase (Escherichia coli) (C3SWJ7 1-264): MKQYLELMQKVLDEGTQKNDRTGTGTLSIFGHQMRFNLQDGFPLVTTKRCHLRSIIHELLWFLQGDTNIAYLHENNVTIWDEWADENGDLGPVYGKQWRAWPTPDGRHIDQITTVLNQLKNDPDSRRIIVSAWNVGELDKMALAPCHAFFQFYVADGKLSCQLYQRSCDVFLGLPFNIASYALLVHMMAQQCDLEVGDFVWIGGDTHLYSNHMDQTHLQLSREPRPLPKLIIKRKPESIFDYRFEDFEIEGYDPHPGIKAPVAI
# Sequence of Thymidylate synthase (Escherichia coli, UniProt C3SWJ7) (C3SWJ7 whole entry): as the sequence (C3SWJ7 1-264) above
SMILES,Ki [1] [µM],Ki [2] [µM],Activity [3],GI50 [4] [µM],TGI [4] [µM],Activity [5],LC50 [4] [µM]
Nc1cc(N)c2nc(-c3ccccc3)c(Nc3ccc(Cl)c(Cl)c3)nc2c1,3,0.9,,,,,
Nc1cc(N)c2nc(-c3ccccc3)c(Nc3ccc(F)cc3)nc2c1,70,,inactive,18.6,35.5,,
CCOC(=O)CCC(NC(=O)c1ccc(Nc2nc3cc(N)cc(N)c3nc2-c2ccccc2)cc1)C(=O)OCC (stereo not given),,34,,,,inactive,
COc1ccc(Nc2nc3cc(N)cc(N)c3nc2-c2ccccc2)cc1OC,,,inactive,25.1,52.5,inactive,> 100
COc1ccc(Nc2nc3cc(N)cc(N)c3nc2-c2ccccc2)cc1,,6,,24,42.7,,89.1
COc1cc(Nc2nc3cc(N)cc(N)c3nc2-c2ccccc2)cc(OC)c1,,25,,27.5,> 100,,> 100
COc1cc(Nc2nc3cc(N)cc(N)c3nc2-c2ccccc2)cc(OC)c1OC,,51,,33.1,34.7,,74.1
